Measurements reported in patent US20060189546A1, “Compounds for treating autoimmune and demyelinating diseases” (priority 2005, published 2006).

Test system: colorectal cancer cell lines (HT29 & HCT116)
Test: Microarray gene expression, cells grown with Symadex at the GI50 concentration
Type: cell-based, human
Source text: Two colorectal cancer cell lines (HT29 & HCT116) were chosen for study, whose behavior as rapidly proliferating invasive cells could be generalized to many other such cell types from different tissue origins. The two lines were immortalized colon carcinomas. Their gene expression patterns are known to mimic the behavior of neuro-enteric cells and therefore provide an appropriate simulation of the kinds of regulatory patterns that would be found in cells of similar epithelial or endothelial origin. Cells with these ontological roots are also suitable models for the kinds of autoimmune and inflammatory susceptibilities that are common in tissues of neuroenteric origin, such as those in which inflammatory bowel disease would present itself.
Frozen cell pellets were lysed in triplicate and total RNA isolated by purification over spin columns (all reagents from Ambion). After QC acceptance for purity, total RNA was converted to cRNA by linear amplification and 10 μg samples were applied to CodeLink Human Whole Genome Bioarrays (GE Healthcare and GenUs Biosystems).
Arrays were processed in triplicate and comparisons made after robust statistical analysis of replicate variability. […] False discovery rates and representation in standardized gene ontologies/pathways were then determined by filtering the “fold” changes in expression with open access software packages, EASE and GoMiner, and with Pathways Analysis (Ingenuity Systems). Functional annotations were then explored further in the MedMiner literature search environment.
A listing of these is shown in Table 3, in which the first column data presents the fold change against control, the second column cites the gene symbol, the third column cites the Genbank Accession, and the fourth column provides an abridged description of the gene's function.

`CCN(CC)CCNc1ccc2ncn3c4ccc(O)cc4c(=O)c1c23` [Symadex™, 5-[[(diethylamino)ethyl]amino]-8-hydroxyimidazo[4,5,1-de]-acridine-6-one] was tested, and the “Mean fold change over control: GGH” value (NM_003878) was −1.96, the “Mean fold change over control: MPZL1” value (NM_003953) was −2.04 and the “Mean fold change over control: C3AR1” value (NM_004054) was −15.52. For the same compound, the “Mean fold change over control: EIF2S1” value (NM_004094) was −2.13, the “Mean fold change over control: FEN1” value (NM_004111) was −2.87 and the “Mean fold change over control: SLC1A2” value (NM_004171) was −11.21. For the same compound, the “Mean fold change over control: SLC9A3” value (NM_004174) was −15.57, the “Mean fold change over control: SNRPD3” value (NM_004175) was −2.31 and the “Mean fold change over control: CDKL1” value (NM_004196) was −8.14. For the same compound, the “Mean fold change over control: PTTG1” value (NM_004219) was −2.43, the “Mean fold change over control: SLC22A13” value (NM_004256) was −11.51 and the “Mean fold change over control: BAG2” value (NM_004282) was −2.22. The “Mean fold change over control: BAD” value (NM_004322) was −2.08, the “Mean fold change over control: ERH” value (NM_004450) was −3.39 and the “Mean fold change over control: KCNQ2” value (NM_004518) was −24.13. For the same compound, the “Mean fold change over control: MYBPC2” value (NM_004533) was −21.22, the “Mean fold change over control: SPOCK” value (NM_004598) was −6.57 and the “Mean fold change over control: NMI” value (NM_004688) was −2.41. For the same compound, the “Mean fold change over control: CCNB2” value (NM_004701) was −2.51, the “Mean fold change over control: PDCD5” value (NM_004708) was −2.21 and the “Mean fold change over control: ZW10” value (NM_004724) was −2.31. The “Mean fold change over control: DDX1” value (NM_004939) was −2.09, the “Mean fold change over control: IBSP” value (NM_004967) was −58.56 and the “Mean fold change over control: CCL23” value (NM_005064) was −12.99. The “Mean fold change over control: COX6A2” value (NM_005205) was −23.19, the “Mean fold change over control: GJB5” value (NM_005268) was −62.09 and the “Mean fold change over control: GPR15” value (NM_005290) was −80.43. The “Mean fold change over control: GPR24” value (NM_005297) was −13.80, the “Mean fold change over control: SULT1E1” value (NM_005420) was −10.91 and the “Mean fold change over control: RQCD1” value (NM_005444) was −2.38. The “Mean fold change over control: ZNF265” value (NM_005455) was −2.03, the “Mean fold change over control: STMN1” value (NM_005563) was −2.41 and the “Mean fold change over control: LCP2” value (NM_005565) was −11.85. The “Mean fold change over control: VDAC3” value (NM_005662) was −2.22, the “Mean fold change over control: D8S2298E” value (NM_005671) was −1.88 and the “Mean fold change over control: SCAMP3” value (NM_005698) was −2.00. The “Mean fold change over control: THOC4” value (NM_005782) was −3.41, the “Mean fold change over control: KLRG1” value (NM_005810) was −24.24 and the “Mean fold change over control: DSCR1L1” value (NM_005822) was −9.75. For the same compound, the “Mean fold change over control: MSLN” value (NM_005823) was −17.46, the “Mean fold change over control: SLC35B1” value (NM_005827) was −2.23 and the “Mean fold change over control: CD5L” value (NM_005894) was −13.25. For the same compound, the “Mean fold change over control: MCM6” value (NM_005915) was −1.97, the “Mean fold change over control: MCM7” value (NM_005916) was −2.69 and the “Mean fold change over control: CD164” value (NM_006016) was −2.14. For the same compound, the “Mean fold change over control: DLEU2” value (NM_006021) was −3.39, the “Mean fold change over control: C10ORF7” value (NM_006023) was −2.11 and the “Mean fold change over control: NFATC1” value (NM_006162) was −16.69. The “Mean fold change over control: TIMM23” value (NM_006327) was −2.02, the “Mean fold change over control: PPIH” value (NM_006347) was −2.49 and the “Mean fold change over control: SYNCRIP” value (NM_006372) was −2.23. The “Mean fold change over control: SSSCA1” value (NM_006396) was −2.20, the “Mean fold change over control: RNASEH2A” value (NM_006397) was −2.31 and the “Mean fold change over control: SIVA” value (NM_006427) was −2.78. For the same compound, the “Mean fold change over control: USP16” value (NM_006447) was −66.26, the “Mean fold change over control: PAICS” value (NM_006452) was −2.03 and the “Mean fold change over control: RPC62” value (NM_006468) was −2.22. For the same compound, the “Mean fold change over control: PIR51” value (NM_006479) was −3.73, the “Mean fold change over control: FARS1” value (NM_006567) was −2.11 and the “Mean fold change over control: RBBP9” value (NM_006606) was −8.81. For the same compound, the “Mean fold change over control: NMU” value (NM_006681) was −2.12, the “Mean fold change over control: U2AF1” value (NM_006758) was −1.99 and the “Mean fold change over control: PRSS21” value (NM_006799) was −22.21. For the same compound, the “Mean fold change over control: KIF2C” value (NM_006845) was −2.52, the “Mean fold change over control: CENTA1” value (NM_006869) was −19.89 and the “Mean fold change over control: TRH” value (NM_007117) was −8.14. For the same compound, the “Mean fold change over control: ZNF258” value (NM_007167) was −2.66, the “Mean fold change over control: DUSP12” value (NM_007240) was −2.18 and the “Mean fold change over control: HSGT1” value (NM_007265) was −2.08. For the same compound, the “Mean fold change over control: DTYMK” value (NM_012145) was −3.07, the “Mean fold change over control: TPSD1” value (NM_012217) was −13.71 and the “Mean fold change over control: TFEC” value (NM_012252) was −20.30. The “Mean fold change over control: RAD54B” value (NM_012415) was −2.04, the “Mean fold change over control: SPO11” value (NM_012444) was −14.75 and the “Mean fold change over control: TIMM10” value (NM_012456) was −2.23. The “Mean fold change over control: UMPK” value (NM_012474) was −1.92, the “Mean fold change over control: HMMR” value (NM_012484) was −2.94 and the “Mean fold change over control: DNAJD1” value (NM_013238) was −2.24. The “Mean fold change over control: TAC3” value (NM_013251) was −12.26, the “Mean fold change over control: RACGAP1” value (NM_013277) was −2.31 and the “Mean fold change over control: ALG5” value (NM_013338) was −2.71. The “Mean fold change over control: ANAPC4” value (NM_013367) was −1.92, the “Mean fold change over control: NRG1” value (NM_013956) was −17.54 and the “Mean fold change over control: SLC27A6” value (NM_014031) was −18.72. The “Mean fold change over control: MRPL13” value (NM_014078) was −2.16, the “Mean fold change over control: TMEM4” value (NM_014255) was −2.21 and the “Mean fold change over control: PLK4” value (NM_014264) was −2.39. For the same compound, the “Mean fold change over control: ITGB3BP” value (NM_014288) was −2.73, the “Mean fold change over control: SULT4A1” value (NM_014351) was −293.18 and the “Mean fold change over control: ZNRD1” value (NM_014596) was −2.17. For the same compound, the “Mean fold change over control: MEA” value (NM_014623) was −2.39, the “Mean fold change over control: DCLRE1A” value (NM_014881) was −3.14 and the “Mean fold change over control: KIAA0089” value (NM_015141) was −7.23. The “Mean fold change over control: RCOR1” value (NM_015156) was −7.09, the “Mean fold change over control: ARL6IP” value (NM_015161) was −2.29 and the “Mean fold change over control: EGFL6” value (NM_015507) was −28.71. The “Mean fold change over control: GMNN” value (NM_015895) was −2.81, the “Mean fold change over control: MRPL11” value (NM_016050) was −2.97 and the “Mean fold change over control: MYO15A” value (NM_016239) was −50.59. The “Mean fold change over control: DNAJB11” value (NM_016306) was −2.15, the “Mean fold change over control: POLR3K” value (NM_016310) was −2.24 and the “Mean fold change over control: NR2E3” value (NM_016346) was −14.89. For the same compound, the “Mean fold change over control: WWOX” value (NM_016373) was −2.07, the “Mean fold change over control: RNF141” value (NM_016422) was −2.29 and the “Mean fold change over control: POLA” value (NM_016937) was −1.88. The “Mean fold change over control: PDE11A” value (NM_016953) was −16.85, the “Mean fold change over control: MRPL39” value (NM_017446) was −2.20 and the “Mean fold change over control: LIMS2” value (NM_017980) was −57.61. For the same compound, the “Mean fold change over control: FAIM” value (NM_018147) was −3.32, the “Mean fold change over control: LPAAT-E” value (NM_018361, first entry) was −11.94 and the “Mean fold change over control: LPAAT-E” value (NM_018361, second entry) was −2.40. For the same compound, the “Mean fold change over control: SIAT7A” value (NM_018414) was −11.76, the “Mean fold change over control: LRP1B” value (NM_018557) was −15.01 and the “Mean fold change over control: TCP11” value (NM_018679) was −9.82. For the same compound, the “Mean fold change over control: BCAP29” value (NM_018844) was −2.17, the “Mean fold change over control: GDAP1” value (NM_018972) was −2.44 and the “Mean fold change over control: ROBO4” value (NM_019055) was −11.95. For the same compound, the “Mean fold change over control: POLE4” value (NM_019896) was −2.04, the “Mean fold change over control: SARA1” value (NM_020150) was −2.14 and the “Mean fold change over control: RAD18” value (NM_020165) was −2.28. The “Mean fold change over control: MRPL1” value (NM_020236) was −2.02, the “Mean fold change over control: NUP107” value (NM_020401) was −2.68 and the “Mean fold change over control: KCNJ12” value (NM_021012) was −15.93. For the same compound, the “Mean fold change over control: MRPL23” value (NM_021134) was −2.29, the “Mean fold change over control: ATP2B3” value (NM_021949) was −9.43 and the “Mean fold change over control: NUCKS” value (NM_022731) was −2.02. The “Mean fold change over control: MIS12” value (NM_024039) was −2.20, the “Mean fold change over control: SUV39H2” value (NM_024670) was −2.33 and the “Mean fold change over control: TXNDC” value (NM_030755) was −2.13. For the same compound, the “Mean fold change over control: PHAX” value (NM_032177) was −2.17, the “Mean fold change over control: PCDH7” value (NM_032457) was −19.65 and the “Mean fold change over control: GPR54” value (NM_032551) was −2.56. For the same compound, the “Mean fold change over control: PHF5A” value (NM_032758) was −2.95, the “Mean fold change over control: SYNE1” value (NM_033071) was −1481.77 and the “Mean fold change over control: SLC7A13” value (NM_138817) was −27.75. For the same compound, the “Mean fold change over control: BBS2” value (T26496) was −23.65 and the “number of down-regulated genes significantly represented in both cell types” value (array of 55,000 gene fragment accessions) was 271.
